Here are results for seven molecules from patent US7635423B2, “Redox potential mediated, heterogeneous, carbon nanotube biosensing” (E. I. du Pont de Nemours and Company, priority 2004, dated 2009).

The subject of series [1] is Trametes versicolor laccase. As to the kind of experiment: Laccase inhibitor kinetics: rate of ABTS^−2 oxidation at varied inhibitor and substrate concentrations. The series is classed as biochemical. As for the experimental part:
High potential quinones/quinols were screened to identify those with characteristics that would be suitable for use as an inhibitor of laccase, to be used in an activity switch.
Compounds were evaluated by varying the concentrations of inhibitor and substrate (ABTS^−2) and measuring under each condition the rate of ABTS^−2 oxidation. […] Tetrachloro-o-quinol and tetrafluoro-o-quinol, shown in Diagram I, had Kds, of 7-9 μM and 2.5 μM, respectively, as determined from the data in FIG. 20.
[…]

The subject of series [2] is Trametes versicolor laccase. As to the kind of experiment: Laccase assay: ABTS^−2 oxidation followed at 436 nm, with and without NaF. The format is biochemical. The conditions noted are these: 1 mM NaF; 5 mM ABTS^−2; 50 mM Glycine pH 3.0. How it is done:
A stock solution of Trametes versicolor laccase (4.8 mg/ml) was diluted 200,000-fold into 50 mM Glycine, pH 3.0. At time zero, ABTS^−2 (2,2′-azino-bis(3-ethylbenzthiazoline-6-sulfonate) diammonium salt was added at a concentration of 5 mM and the oxidation of ABTS^−2 was followed by monitoring the absorbance change at 436 nm. Shown in FIG. 12 is the result of the laccase assay in the presence and absence of 1 mM NaF. The latter inhibits the laccase activity by 95%.

Series [3] concerns laccase (Type I copper center). As to the kind of experiment: Laccase 600 nm absorbance peak on inhibitor binding. Details: species or system Trametes versicolor. From the text:
This conclusion was strengthened by the observation that the binding of tetrachloro-o-quinol to laccase caused a decrease in the amplitude of the laccase 600 nm absorbance peak, dominated by a charge-transfer band involving the Type I copper center and its cysteinyl ligand.

In series [4] the test system is surface-attached oligo 29 (complementary) vs oligo 28 (non-complementary). As to the kind of experiment: Detection of DNA hybridization by CNT device (current vs time at Vg=−0.4 V). The conditions noted are these: 30 μM ABTS^−2, 50 mM glycine pH 3, adduct 50 nM (in DNA). As for the experimental part: Detection of DNA hybridization in a CNT device was assayed as diagramed in FIG. 17. […] In the diagram, two electrodes are indicated, one source electrode (10) and one drain electrode (20), where the electrodes are connected by an electrically conducting path comprising at least one semiconducting carbon nanotube (30). A third electrode (40) generates an electric field to gate the conductance of the CNT. Nucleic acid molecules, functioning as capture moieties (220) are attached to a surface (60) through a silyl butyraldehyde attachment group (230). An oligonucleotide (260) that hybridizes to the capture moiety nucleic acid is attached to the enzyme laccase (270). Laccase oxidizes ABTS^−2 (2,2′ azino-di-(3-ethylbenzthiazoline-sulfonate) at the expense of O2, transferring 4 electrons from 4ABTS^−2 to O2, producing 4ABTS^−1 and H2O. Thus the redox potential of the redox effector (ABTS^−2/ABTS^−1) in solution becomes more positive. This change in effector redox potential oxidizes the CNTs, increasing their p-type conductance. […]
Electron transport through the CNT was first recorded in the 50 mM glycine pH=3 buffer and immediately after flowing 30 μM ABTS^−2 in the same buffer into the flow cell. […]

For series [5], the system named is surface-bound oligonucleotide 51. As to the kind of experiment: Fluorescence signals following hybridization to surface bound oligo. The format is binding. The conditions noted are these: camera exposure 30 s. How it is done: To increase the specificity of hybridization, the chips were incubated with Sigma #6429 1× Blocking buffer for 1 h. Excess blocking solution was removed by rinsing with 50 mM Na Acetate pH 5.0 plus 100 mM Na2SO4. Surface-bound oligonucleotide 51 was hybridized separately to: • 1) Oligonucleotide 52 (SEQ ID NO:4), acting as a target sequence, hybridized to oligonucleotide 54 (SEQ ID NO:5). Oligonucleotide 54 has 18 nucleotides complementary to the 3′ end of the target oligonucleotide 52 and a fluorescent tag, Alexa Fluor 546, at its 5′ end. Oligonucleotide 52 has at its 5′ end 18 nucleotides complementary to oligonucleotide 51. • 2) Oligonucleotide 52 (SEQ ID NO:4), acting as a target sequence, hybridized to oligonucleotide 50 (SEQ ID NO:5). Oligonucleotide 50 has the same nucleotide sequence as oligonucleotide 54 and was attached to laccase enzyme (lac/oligo 50) as described below in Example 13, This oligonucleotide also has a Cy3 tag at its 3′ end. All oligonucleotides were purchased from Integrated DNA Technologies, Inc. (Coralville, Iowa). Oligos 52 and 54 in (1), and oligos 52 and 50 in (2) were prehybridized in 50 mM Na Acetate pH 5.0 plus 100 mM Na2SO4 for 10 min at 50° C., then allowed to cool to room temperature before adding to the chip with oligo 51.
Hybridizations of the surface bound probe, oligo 51, with the samples listed above were carried out in 50 mM Na Acetate pH 5.0 plus 100 mM Na2SO4. Unbound oligonucleotides were removed by rinsing with Washing Buffer A (Arraylt, Telechem International Inc., Sunnyvale, Calif.). Where a laccase/DNA adduct was used for hybridization, 50 mM Na Acetate pH 5.0 plus 100 mM Na2SO4 was used for the wash. After washing, the chip was covered with a cover slip and observed using a fluorescence microscope. The extent of hybridization was evaluated by measuring fluorescence emission from fluorescent-tagged oligonucleotides attached or not to laccase.
Results of fluorescent signals following hybridizations in 1) and 2) above, using different concentrations of oligos as listed, are given in Table 1. […]

Where [6] appears, read: plots of reciprocal rate vs inhibitor concentration, FIG. 20, read-out: Kd (dissociation constant of the inhibitor, -Ki intersection).

Several values for one entry are separate records, joined by “and”; a condition that tells them apart may be missing. Equal values may be shown once. Where a name gives a salt, the structure may show the parent alone. Read-outs that look alike come from different tables or passages of the source.

As to `CCn1c(=NN=c2sc3cc(S(=O)(=O)O)ccc3n2CC)sc2cc(S(=O)(=O)O)ccc21` [ABTS^−2, 2,2′-azino-bis(3-ethylbenz-thiazoline-6-sulfonate) diammonium salt, reference compound], the Kd in series [1] (substrate of laccase, read-out: dissociation constant, Kd of the laccase substrate) lay within 120 to 240 µM.
`[F-].[Na+]` [NaF]: the “inhibition of laccase activity” value in series [2] stood at 95%.
Take `Oc1c(O)c(Cl)c(Cl)c(Cl)c1Cl` [Tetrachloro-o-quinol]: the “activity as an inhibitor of laccase” value in series [1] was “effective inhibitor”. In series [1] (setting [6]), the Kd was in the range of 7 to 9 µM. Besides, in series [3], the “amplitude of the laccase 600 nm absorbance peak on binding” value was “decrease”.
On to `Oc1c(Cl)c(Cl)c(O)c(Cl)c1Cl` [tetrachloro-p-quinol], for which the “activity as an inhibitor of laccase” value in series [1] was “inactive”.
Turning to `Oc1c(O)c(F)c(F)c(F)c1F` [tetrafluoro-o-quinol], the Kd in series [1] (setting [6]) amounted to 2.5 µM.
On to “oligo28/laccase adduct: oligo 28 (SEQ ID NO:1) attached via 5′ hydrazide to periodate-treated Trametes versicolor laccase (CGCTGTGATGGTGGCCCC; Laccase enzyme attached through a 5' hydrazide, further chemistry not given here)”, for which the “increase in current, complementary vs non-complementary surface oligonucleotide” value in series [4] is 3.5 fold.

B1: Oligo52 + Oligo54: target oligonucleotide 52 (SEQ ID NO:4) prehybridized to oligonucleotide 54 (SEQ ID NO:5) with 5′ Alexa Fluor 546 tag (nucleic acid)
chain 1: GGGGCCACCATCACAGCGTTTTTTTTTTGGGGCCACCATCACAGCG
chain 2: CGCTGTGATGGTGGCCCC
modifications: Second strand carries a 5' Alexa Fluor 546 label, further chemistry not given here; the letters are possibly those of the target site
In the case of B1, the Relative signal amplitude was 39 and 50 in series [5] (1 nM); 940 and 990 in series [5] (10 nM); 1140 and 1690 in series [5] (100 nM).
